The values below are quoted from earlier work in patent US20170326166A1, “COMPOSITIONS AND METHODS FOR TREATING PITUITARY TUMORS” (University of Virginia Patent Foundation, priority 2014, published 2017).

In data set [1] the test system is cancer cells. Particulars: in cancer cells; trapped in the cytosol.
For data set [2], the system named is cancer cells. As to conditions: cancer cells compared to their normal counterpart cells or other normal cells.

For `O=CC[C@@H](O)[C@H](O)[C@H](O)COP(=O)(O)O` [2-deoxyglucose 6-phosphate], the intracellular half-life entry in the data set with cancer cells [1] was “approximately 50 minutes”.

For the compound `O=CC[C@@H](O)[C@H](O)[C@H](O)CO` [2DG, 2-Deoxy-D-glucose], the accumulation in cells result with cancer cells [2] is given as “accumulates predominantly in cancer cells”.
